What was measured:
[1] = Morpholine Test (depression of partial vapour pressure of morpholine, Raoult Variance Ratio); conditions: morpholine 0.25 g + material 1 g, 37° C., headspace GC
[2] = Bleach Stability Test (triangle test after storage with perborate and TAED); type: physicochemical; conditions: number of 20 assessors correctly choosing odd one out; 0.2% material in powder with perborate and TAED, 45° C. one week; up to 9 = bleach-stable, 10 or more = unstable
Experimental: (i) dosing a perfume material into the standard unperfumed washing powder and incubating the dosed powder at 20° C. in a sealed container for seven days;
(ii) dividing the dosed powder into two portions and adding to each portion sodium perborate tetrahydrate together with either TAED granules or sodium sulphate (to act as an inert filler in place of TAED) to provide test and control formulations having the following constitution: […]
(iii) incubating both test and control powders in sealed containers at 45° C. for a further seven days; and
(iv) assessing samples of the test and control powders according to a standard triangle test as described in "Manual on Sensory Testing Methods" published by the American Society for Testing and Materials (1969), using a panel of 20 assessors, who are instructed to judge by smell which of the three powder samples is the odd one out, the perfume material being designated a bleach-stable deodorant perfume component when the odd one out is correctly identified by no more than 9 of the 20 assessors.
The stability of perfume materials to the presence of a bleaching composition is assessed according to a standard test which involves the exposure of these individual perfume materials to a mixture of sodium perborate tetrahydrate and TAED in a detergent fabric washing powder under standard conditions of storage.
In order to perform this test, a detergent powder base is prepared according to a standard blowing technique to form a granulated product. The formulation of the detergent powder base is as follows: […]
A selected perfume material is then incorporated by mixing with a portion of the blown base powder to a final concentration of 0.2% by weight of the finished product, and stored at 20° C. in a sealed container for one week with occasional mixing to ensure an even concentration of the perfume material throughout the powder. The sample is the split into two portions and further ingredients mixed in to provide the following test and control formulations:
100 g samples of each control and test batch of powder containing a selected perfume material are then sealed in containers and stored at 45° C. for one week. Each sample is then assessed in a forced choice triangle test according to the following procedure:
Three samples of powder, either one from the test batch and two from the control batch, or two from the test batch and one from the control batch are then assessed by a panel of 20 assessors who are asked to select by sniffing which of the three samples is the "odd one out".
The fragrance of samples containing bleach-stable perfume materials should be unchanged following incubation in the presence of the perborate and TAED, and accordingly there is a 1 in 3 chance of an assessor selecting correctly the control or test sample as the "odd one out".
The Triangle Test procedure is described and discussed in "Manual on Sensory Testing Methods" published by the American Society for Testing and Materials (1969).
The results of each Triangle Test are calculated as follows: […]
If 10 or more of the 20 assessors choose correctly the "odd one out" of the three samples, then the perfume material under test is judged to be unstable in the presence of bleach. If, however, up to 9 of the 20 accessors choose correctly the "odd one out" of 3 samples, then the perfume material under test is judged to be stable in the presence of bleach.

[3] = molecular target: T1, lipoxidase (EC1.13.1.13) (Glycine max, UniProt P08170); assay: Lipoxidase Test (inhibition of oxidation of linoleic acid by lipoxidase); type: biochemical; conditions: test substrate made with 0.5% by weight solution of material in ethanol; for LIC value (Lipoxidase-Inhibiting Capacity): % inhibition, borate buffer pH 9.0, 234 nm; for inhibition at 0.5 % strength: borate buffer pH 9.0, 234 nm, read-out: LIC value (Lipoxidase-Inhibiting Capacity)
T1 sequence (P08170 1-839): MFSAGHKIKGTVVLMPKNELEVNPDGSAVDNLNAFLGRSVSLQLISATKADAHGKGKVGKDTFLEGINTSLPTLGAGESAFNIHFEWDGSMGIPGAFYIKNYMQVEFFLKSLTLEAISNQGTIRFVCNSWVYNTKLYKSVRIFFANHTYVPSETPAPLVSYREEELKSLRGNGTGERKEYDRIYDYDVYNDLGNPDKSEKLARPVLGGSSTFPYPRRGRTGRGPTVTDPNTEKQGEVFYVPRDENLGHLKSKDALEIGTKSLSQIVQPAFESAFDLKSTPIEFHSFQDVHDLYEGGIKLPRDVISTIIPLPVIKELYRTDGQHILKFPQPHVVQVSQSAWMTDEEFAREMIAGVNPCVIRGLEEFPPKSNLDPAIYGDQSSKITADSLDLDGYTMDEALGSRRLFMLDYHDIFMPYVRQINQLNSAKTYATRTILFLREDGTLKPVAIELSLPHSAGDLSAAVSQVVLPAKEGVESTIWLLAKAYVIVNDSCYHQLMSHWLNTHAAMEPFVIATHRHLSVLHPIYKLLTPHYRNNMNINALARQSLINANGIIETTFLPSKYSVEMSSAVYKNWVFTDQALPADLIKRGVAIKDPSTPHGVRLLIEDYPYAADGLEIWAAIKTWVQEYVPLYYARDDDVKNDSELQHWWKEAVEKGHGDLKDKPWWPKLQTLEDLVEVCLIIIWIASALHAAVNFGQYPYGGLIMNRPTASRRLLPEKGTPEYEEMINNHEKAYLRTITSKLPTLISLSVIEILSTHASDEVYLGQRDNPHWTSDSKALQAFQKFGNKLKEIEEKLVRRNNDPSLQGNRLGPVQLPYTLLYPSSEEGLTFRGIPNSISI

| Compound | RVR value (Raoult Variance Ratio) [1] | BST panel score [2] | LIC value (Lipoxidase-Inhibiting Capacity) [3] [%] | inhibition at 0.5 % strength [3] [%] |
| --- | --- | --- | --- | --- |
| i-Nonyl formate | 1.49 | 8 | 19 | – |
| Hydroxymethyl isopropyl cyclopentane | 1.23 | 8 | 60 | – |
| C/C=C\c1ccc(O)c(OC)c1 [iso-Eugenol] | 1.48 | 4 | – | – |
| Tetrahydromuguol | 1.23 | 8 | 24 | – |
| CCOc1cc(C=O)ccc1O [Ethyl vanillin] | 1.43 | 12 | – | – |
| CC(=O)OC1CCC(C(C)(C)C)CC1 (stereo not drawn) [p-t-Butyl cyclohexyl acetate] | 0.98 | 10 | – | – |
| O=C(OCc1ccccc1)c1ccccc1O [Benzyl salicylate] | 1.58 | 17 | – | – |
| COC(=O)c1ccccc1N [Methyl anthranilate] | 1.20 | 6 | – | 69 |
| CCCCCCOC(=O)c1ccccc1O [Hexyl salicylate] | – | 5 | – | 100 |
| CC1COCc2cc3c(cc21)C(C)(C)C(C)C3(C)C (stereo not drawn) [1,3,4,6,7,8-Hexahydro-4,6,6,7,8,8-hexamethyl cyclopenta-α-2-benzopyran] | – | 5 | – | – |
| CC(C)Cc1ccc2ncccc2c1 [iso-Butyl quinoline] | 1.10 | 5 | – | – |
| CC1(C)CCCC2(C)C1CCC1(C)OCCC12 (stereo not drawn) [3a-Methyl-dodecahydro-6,6,9a-trimethylnaphtho-2(2,1-b)furan] | 1.30 | 5 | – | – |
| CCCCCCCC1CCCC1=O (stereo not drawn) [2-n-Heptylcyclo-pentanone] | 1.05 | 7 | – | – |
| OCCc1ccccc1 [Phenylethyl alcohol] | 1.24 | 10 | – | – |
| O=C(Cc1ccccc1)OCCc1ccccc1 [Phenylethyl phenyl acetate] | 1.22 | 7 | – | – |
| OC/C=C/c1ccccc1 [Cinnamic alcohol] | 1.28 | 9 | – | – |
| CCC(C)(C)C1CCC(=O)CC1 [p-t-Amyl cyclohexanone] | 1.10 | 8 | – | – |
| CCOC(=O)c1ccccc1C(=O)OCC [Diethyl phthalate] | 1.20 | 4 | – | – |
| CCCCCC1CCC(=O)O1 (stereo not drawn) [Nonanolide-1,4] | 0.87 | 5 | – | – |
| Cc1ccc(C(C)C)cc1O [Carvacrol] | 1.43 | 6 | – | – |
| Dimyrcetol | 1.22 | 9 | 16 | – |
| CC(=O)C(C)=CC1C(C)=CCCC1(C)C (stereo not drawn) [α-iso-Methyl ionone] | – | 7 | – | – |
| CC(=O)c1ccc2ccccc2c1 [β-Methyl naphthyl ketone] | 0.96 | 3 | – | – |
| O=c1ccc2ccccc2o1 [Coumarin] | 1.22 | 10 | – | – |
| CC(C)CCOC(=O)c1ccccc1O [iso-Amyl salicylate] | 1.24 | 9 | – | – |
| CCOC(=O)c1ccccc1O [Ethyl salicylate] | 1.19 | 7 | – | – |
| CCCCCCC(CCOC(C)=O)OC(C)=O (stereo not drawn) [Nonanediol-1,3-diacetate] | 1.17 | 8 | – | – |
| CC(C=O)Cc1ccc(C(C)(C)C)cc1 (stereo not drawn) [p-t-Butyl-α-methyl hydrocinnamic aldehyde] | – | 13 | – | – |
| CC(=O)OC1CCCCC1C(C)(C)C (stereo not drawn) [o-t-Butylcyclohexyl acetate] | 1.08 | 8 | – | – |
| i-Nonyl acetate | 0.83 | 4 | 50 | – |
